Source: patent US9382197B2, “Substituted hydroxamic acids and uses thereof” (Millennium Pharmaceuticals, Inc., priority 2010, dated 2016)

Each compound was assayed against T1, purified human HDAC6 (Homo sapiens, UniProt Q9UBN7) (assay: HDAC6 Enzyme Assay). Conditions: bin: greater than 500 nM and less than 1 μM (lower bound in nM, upper bound in μM).
T1 construct: purchased BPS Bioscience 5006
T1 sequence (Q9UBN7 1-1215): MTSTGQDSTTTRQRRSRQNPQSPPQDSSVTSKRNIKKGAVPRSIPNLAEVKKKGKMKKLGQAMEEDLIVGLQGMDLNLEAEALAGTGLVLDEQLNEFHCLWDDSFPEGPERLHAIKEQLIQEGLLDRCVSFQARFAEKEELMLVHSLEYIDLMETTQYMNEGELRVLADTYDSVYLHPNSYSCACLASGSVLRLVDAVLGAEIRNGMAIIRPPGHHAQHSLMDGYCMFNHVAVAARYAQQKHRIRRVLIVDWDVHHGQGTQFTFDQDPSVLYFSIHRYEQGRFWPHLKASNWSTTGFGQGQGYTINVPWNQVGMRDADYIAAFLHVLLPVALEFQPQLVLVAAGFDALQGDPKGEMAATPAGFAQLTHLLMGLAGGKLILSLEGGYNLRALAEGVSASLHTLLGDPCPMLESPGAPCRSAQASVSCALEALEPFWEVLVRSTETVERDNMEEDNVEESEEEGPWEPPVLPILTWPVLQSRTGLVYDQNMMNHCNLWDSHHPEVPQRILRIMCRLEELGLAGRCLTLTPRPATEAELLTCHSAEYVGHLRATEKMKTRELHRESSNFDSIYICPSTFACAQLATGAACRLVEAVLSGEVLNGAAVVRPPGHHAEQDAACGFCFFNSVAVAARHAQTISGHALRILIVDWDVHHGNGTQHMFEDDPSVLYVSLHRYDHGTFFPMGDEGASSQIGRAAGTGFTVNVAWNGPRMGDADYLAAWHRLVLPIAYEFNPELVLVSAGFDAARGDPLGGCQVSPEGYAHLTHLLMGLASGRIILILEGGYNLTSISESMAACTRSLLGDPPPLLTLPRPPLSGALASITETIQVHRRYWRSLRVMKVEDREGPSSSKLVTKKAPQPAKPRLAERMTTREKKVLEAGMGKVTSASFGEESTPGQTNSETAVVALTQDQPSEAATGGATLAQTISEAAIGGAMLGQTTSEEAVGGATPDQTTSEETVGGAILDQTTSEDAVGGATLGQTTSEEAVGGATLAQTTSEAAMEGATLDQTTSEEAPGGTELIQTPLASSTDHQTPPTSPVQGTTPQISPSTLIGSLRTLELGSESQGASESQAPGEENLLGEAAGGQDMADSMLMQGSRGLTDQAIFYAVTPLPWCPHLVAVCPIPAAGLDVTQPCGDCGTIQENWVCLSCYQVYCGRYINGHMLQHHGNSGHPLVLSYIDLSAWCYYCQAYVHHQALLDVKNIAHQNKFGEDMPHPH
Format: biochemical
In short: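 Purified human HDAC6 incubated 1 h at 30 °C with Ac-Arg-Gly-Lys(Ac)-AMC and compound; trichostatin A stop, trypsin release of AMC, fluorescence Ex 340/Em 460 nm. IC50 from concentration–response relative to DMSO.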

IC50	SMILES
500 to 1000 nM	CC(C)C(NC(=O)C(c1ccccc1)c1ccccc1)c1ccc(C(=O)NO)cc1 (stereo not drawn) [Compound I-204, 4-{1-[(diphenylacetyl)amino]-2-methylpropyl}-N-hydroxybenzamide]

Same assay, conditions: bin: greater than 1 μM

IC50	SMILES
> 1000 nM	CC(C)C(NC(=O)c1cc2ccccc2s1)c1cccc(C(=O)NO)c1 (stereo not drawn) [Compound I-390, N-(1-{3-[(hydroxyamino)carbonyl]phenyl}-2-methylpropyl)-1-benzothiophene-2-carboxamide]
> 1000 nM	Cn1c(C(=O)NC(c2ccc(C(=O)NO)cc2)C(C)(C)C)cc2oc(-c3ccccc3)cc21 (stereo not drawn) [Compound I-392, N-(1-{4-[(hydroxyamino)carbonyl]phenyl}-2,2-dimethylpropyl)-4-methyl-2-phenyl-4H-furo[3,2-b]pyrrole-5-carboxamide]

More lines, now with the values behind:

SMILES	IC50
CC(NC(=O)c1cnccn1)c1cccc(C(=O)NO)c1 (stereo not drawn) [Compound I-165, N-(1-{3-[(hydroxyamino)carbonyl]phenyl}ethyl)pyrazine-2-carboxamide]	> 1000 nM
Cc1nc(CC(=O)NC(C)c2ccc(C(=O)NO)cc2)c(C)s1 (stereo not drawn) [Compound I-217, 4-(1-{[(2,5-dimethyl-1,3-thiazol-4-yl)acetyl]amino}ethyl)-N-hydroxybenzamide]	> 1000 nM
CC(NC(=O)Cc1ccccc1Cl)c1ccc(C(=O)NO)cc1 (stereo not drawn) [Compound I-292, 4-(1-{[(2-chlorophenyl)acetyl]amino}ethyl)-N-hydroxybenzamide]	> 1000 nM
COc1ccc(CC(=O)NC(C)c2ccc(C(=O)NO)cc2)cc1 (stereo not drawn) [Compound I-159, N-hydroxy-4-(1-{[(4-methoxyphenyl)acetyl]amino}ethyl)benzamide]	> 1000 nM
C[C@@H](NC(=O)NC(C)(C)C)c1cccc(C(=O)NO)c1 [Compound I-320, 3-((1R)-1-{[(tert-butylamino)carbonyl]amino}ethyl)-N-hydroxybenzamide]	> 1000 nM
Cc1noc(C)c1C(=O)NC(c1ccc(C(=O)NO)cc1)C(C)(C)C (stereo not drawn) [Compound I-200, N-(1-{4-[(hydroxyamino)carbonyl]phenyl}-2,2-dimethylpropyl)-3,5-dimethylisoxazole-4-carboxamide]	> 1000 nM

Same assay, conditions: purified human HDAC6, substrate Ac-Arg-Gly-Lys(Ac)-AMC, 1 hour at 30° C.; reported as bins

IC50	SMILES
< 100 nM	CC(C)[C@@H](NC(=O)NCCc1ccccc1)c1ccc(C(=O)NO)cc1 [Compound I-522, N-hydroxy-4-[(1R)-2-methyl-1-({[(2-phenylethyl)amino]carbonyl}amino)propyl]benzamide]
< 100 nM	C[C@@H](NC(=O)Nc1ccccc1-c1ccccc1)c1ccc(C(=O)NO)cc1 [Compound I-523, 4-((1R)-1-{[(biphenyl-2-ylamino)carbonyl]amino}ethyl)-N-hydroxybenzamide]
100 to 500 nM	CC(C)C(NC(=O)C1CCCCC1)c1ccc(C(=O)NO)cc1 (stereo not drawn) [Compound I-344, 4-{1-[(cyclohexylcarbonyl)amino]-2-methylpropyl}-N-hydroxybenzamide]
< 100 nM	CC(C)[C@@H](Nc1nc(-c2cc(-c3ccccc3)no2)cs1)c1ccc(C(=O)NO)cc1 [Compound I-519, N-hydroxy-4-((1R)-2-methyl-1-{[4-(3-phenylisoxazol-5-yl)-1,3-thiazol-2-yl]amino}propyl)benzamide]
< 100 nM	CC(C)[C@@H](NC(=O)Nc1ccc(C#N)cc1)c1ccc(C(=O)NO)cc1 [Compound I-525, 4-[(1R)-1-({[(4-cyanophenyl)amino]carbonyl}amino)-2-methylpropyl]-N-hydroxybenzamide]
100 to 500 nM	CCC[C@@H](NC(=O)NC(C)(C)C)c1ccc(C(=O)NO)cc1 [Compound I-380, 4-((1R)-1-{[(tert-butylamino)carbonyl]amino}butyl)-N-hydroxybenzamide]
< 100 nM	Cc1ccc(NC(=O)NC(C)c2ccc(C(=O)NO)cc2)c(C)c1 (stereo not drawn) [Compound I-383, 4-[1-({[(2,4-dimethylphenyl)amino]carbonyl}amino)ethyl]-N-hydroxybenzamide]

The next lines start with the compound.

SMILES	IC50
C[C@@H](NC(=O)c1cc2oc(-c3ccccc3)cc2n1C)c1ccc(C(=O)NO)cc1 [Compound I-5, N-((1R)-1-{4-[(hydroxyamino)carbonyl]phenyl}ethyl)-4-methyl-2-phenyl-4H-furo[3,2-b]pyrrole-5-carboxamide]	< 100 nM
O=C(NO)c1ccc([C@@H](NC(=O)c2cc3ccccc3s2)c2ccccc2)cc1 [Compound I-124, N-[(S)-{4-[(hydroxyamino)carbonyl]phenyl}(phenyl)methyl]-1-benzothiophene-2-carboxamide]	< 100 nM
CC(C)C(NC(=O)c1ccc(-c2ccccc2)cc1)c1ccc(C(=O)NO)cc1 (stereo not drawn) [Compound I-11, N-(1-{4-[(hydroxyamino)carbonyl]phenyl}-2-methylpropyl)biphenyl-4-carboxamide]	< 100 nM
CC(C)Cc1cc(C(=O)NC(C)c2ccc(C(=O)NO)cc2)no1 (stereo not drawn) [Compound I-286, N-(1-{4-[(hydroxyamino)carbonyl]phenyl}ethyl)-5-isobutylisoxazole-3-carboxamide]	< 100 nM
Cc1cc(C)n2nc(C(=O)NC(C)c3ccc(C(=O)NO)cc3)cc2n1 (stereo not drawn) [Compound I-160, N-(1-{4-[(hydroxyamino)carbonyl]phenyl}ethyl)-5,7-dimethylpyrazolo[1,5-a]pyrimidine-2-carboxamide]	< 100 nM
CC(NC(=O)Nc1ccc(OC(F)(F)F)cc1)c1ccc(C(=O)NO)cc1 (stereo not drawn) [Compound I-141, N-hydroxy-4-{1-[({[4-(trifluoromethoxy)phenyl]amino}carbonyl)amino]ethyl}benzamide]	< 100 nM
CC(NC(=O)Nc1ccc(F)c(F)c1)c1ccc(C(=O)NO)cc1 (stereo not drawn) [Compound I-275, 4-[1-({[(3,4-difluorophenyl)amino]carbonyl}amino)ethyl]-N-hydroxybenzamide]	< 100 nM
COc1ccc(NC(=O)NC(C)c2ccc(C(=O)NO)cc2)c(OC)c1 (stereo not drawn) [Compound I-44, 4-[1-({[(2,4-dimethoxyphenyl)amino]carbonyl}amino)ethyl]-N-hydroxybenzamide]	< 100 nM
CC(C)C(NC(=O)c1cc(F)c(F)cc1F)c1ccc(C(=O)NO)cc1 (stereo not drawn) [Compound I-116, 2,4,5-trifluoro-N-(1-{4-[(hydroxyamino)carbonyl]phenyl}-2-methylpropyl)benzamide]	< 100 nM
Cn1nc(C(C)(C)C)cc1C(=O)NC(c1ccc(C(=O)NO)cc1)C(C)(C)C (stereo not drawn) [Compound I-291, 3-tert-butyl-N-(1-{4-[(hydroxyamino)carbonyl]phenyl}-2,2-dimethylpropyl)-1-methyl-1H-pyrazole-5-carboxamide]	100 to 500 nM
CC(NC(=O)Nc1ccc(C(F)(F)F)cc1Cl)c1ccc(C(=O)NO)cc1 (stereo not drawn) [Compound I-163, 4-{1-[({[2-chloro-4-(trifluoromethyl)phenyl]amino}carbonyl)amino]ethyl}-N-hydroxybenzamide]	< 100 nM
C[C@@H](NC(=O)c1cc2ccccc2n1C)c1cccc(C(=O)NO)c1 [Compound I-330, N-((1R)-1-{3-[(hydroxyamino)carbonyl]phenyl}ethyl)-1-methyl-1H-indole-2-carboxamide]	100 to 500 nM
Cc1c(C(=O)N[C@@H](c2ccc(C(=O)NO)cc2)C(C)C)sc2ccccc12 [Compound I-307, N-((1R)-1-{4-[(hydroxyamino)carbonyl]phenyl}-2-methylpropyl)-3-methyl-1-benzothiophene-2-carboxamide]	< 100 nM
O=C(NO)c1ccc([C@H](NC(=O)C23CC4CC(CC(C4)C2)C3)c2ccccc2)cc1 [Compound I-336, N-[(R)-{4-[(hydroxyamino)carbonyl]phenyl}(phenyl)methyl]adamantane-1-carboxamide]	100 to 500 nM
